Earlier results on seven molecules are cited in patent US7601707B1, “Method for instantly relieving tissue inflammation” (priority 2003, dated 2009).

The conditions of data set [1]: in vivo.
The conditions of data set [2]: dose at which some people begin to feel toxic systemic effects; not considered lethal.

`CCCNC(C)C(=O)Nc1c(C)csc1C(=O)OC` (stereo not drawn) [Articaine]: the Half-life in data set [1] was 0.333 h. The “Max dose Mg/Kg” value in data set [2] is 7.0 Mg/Kg.

`CCCCN1CCCCC1C(=O)Nc1c(C)cccc1C` (stereo not drawn) [Bupivicaine]: the Half-life in data set [1] was 3.5 h. Further, the “Max dose Mg/Kg” value in data set [2] is recorded as 1.3 Mg/Kg.

`C[C@@H]1C[C@H]2[C@@H]3CCC4=CC(=O)C=C[C@]4(C)[C@@]3(F)[C@@H](O)C[C@]2(C)[C@@]1(O)C(=O)CO` [Dexamethasone]: the water solubility entry was “very water-soluble”.

For `CCCN(CC)C(CC)C(=O)Nc1c(C)cccc1C` (stereo not drawn) [Etidocaine], the Half-life in data set [1] was 2.58 h. Further, in data set [2], the “Max dose Mg/Kg” value was 8.0 Mg/Kg.

`CCN(CC)CC(=O)Nc1c(C)cccc1C` [Lidocaine]: the “Max dose Mg/Kg” value in data set [2] is reported as 7.0 Mg/Kg.

Consider `Cc1cccc(C)c1NC(=O)C1CCCCN1C` (stereo not drawn) [Mepivicaine 2%, Mepivicaine], for which the Half-life in data set [1] is 1.92 h. In addition, in data set [2], the “Max dose Mg/Kg” value is on record as 6.6 Mg/Kg.

In the case of `CCCNC(C)C(=O)Nc1ccccc1C` (stereo not drawn) [Prilocaine], in data set [1], the Half-life is 1.5 h. Also, the “Max dose Mg/Kg” value in data set [2] was 8.0 Mg/Kg.
